Several values for one entry are separate records, joined by “and”; a condition that tells them apart may be missing. Equal values may be shown once.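 Dose response: 5 concentrations. Exposure: 48 h. Format: 96-well plates. Endpoint: linear interpolation; highest concentration if not reached. At the GI50, growth is halved. The concentration for full growth arrest is given as TGI.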
system: 786-0 renal; test: NCI-60 cell line screen, 48 h

Compared with `O=C(N/N=C/c1ccc(Cl)cc1)c1ccc(C(F)(F)F)nc1Nc1cccc(C(F)(F)F)c1`, `N=C1C(c2nc3ccccc3s2)=C(O)CN1c1cc(C(F)(F)F)ccc1Cl` is 47-fold higher in GI50: 0.818 µM for the first, 38.1 µM for the second.

Compared with `COc1cc2ncnc(Nc3ccc(C)c(O)c3)c2cc1OC`, `COc1cc2nc3cc([N+](=O)[O-])ccc3c(NCCCNCCO)c2cc1OC` is 48-fold lower in GI50: 11.4 µM for the first, 0.239 µM for the second.

First: COC(=O)C1=CNC=C(C(=O)OC)C1C1=CC(=O)C(C)=CC1=O
Second: COc1cc2c(c(OC)c1OC)-c1ccc(OC)c(=O)cc1[C@@H](NC(=O)c1ccccc1)CC2
The GI50 of the first is 380-fold higher: 4.3 µM for the first, 0.0114 µM for the second.

Compared with `C=C1C(=O)O[C@H]2[C@H]1CC/C(COC(=O)C(=O)c1cn(Cc3ccccc3)c3ccccc13)=C\CC[C@@]1(C)O[C@@H]21`, `Cc1cc(S(=O)(=O)Nc2nnc(-c3ccccc3)c(-c3ccccc3)n2)c(SCC(N)=O)cc1Cl` is 20-fold higher in GI50: 1.93 µM for the first, 38.6 µM for the second.

Compared with `COc1ccccc1CNCCCN1C(=O)c2ccc3c4c(ccc(c24)C1=O)C(=O)N(CCCOCCCCOCCCN)C3=O`, `COc1cc2c3c(n(CCCNC(=O)OCC4c5ccccc5-c5ccccc54)c(=O)c2cc1OC)-c1cc2c(cc1/C3=C\CCNC(=O)OCC1c3ccccc3-c3ccccc31)OCO2` is higher in GI50: 1.53 µM for the first, > 16.2 µM for the second.

`CCOC(=O)[C@@H](N)CCC(=O)N[C@@H](CSCc1ccccc1)C(=O)N[C@@H](C(=O)OCC)c1ccccc1` and `COC(=O)[C@H](C)NC(=O)NC(=O)NC(=O)CI` are within 1.5-fold of each other in GI50: 17.7 µM for the first, 17.3 µM for the second.

Compared with `COc1ccc(Nc2c3ccccc3nc3occc23)cc1`, `CN1C/C=C\CCOc2cccc(c2)-c2ccnc(n2)Nc2cccc(c2)C1` is 100-fold lower in GI50: 5.83 µM for the first, 0.0568 µM for the second.

First: COc1cc(/C=C/c2cc(/C=C/c3ccc(O)c(OC)c3)n(C(=O)Nc3ccc(F)c(Cl)c3)n2)ccc1O
Second: NS(=O)(=O)c1ccc(N=Nc2c(O)[nH]c3ccc(-c4cnco4)cc23)cc1
The GI50 of the first is lower: 0.52 µM for the first, > 25 µM for the second.

Compared with `CCCCCCCC/C=C/CCCCCCCC(=O)OC[C@H]1O[C@@H](n2ccc(N)nc2=O)C(F)(F)[C@@H]1O`, `COC(=O)[C@@H](C)CNS(=O)(=O)N(c1cc(C(F)(F)F)cc(C(F)(F)F)c1)C1CCN(Cc2ccc(F)cc2)CC1` is higher in GI50: < 0.0139 µM for the first, 11.2 µM for the second.

Compound `C[C@@]12CC=C3c4nc(Nc5cccc(O)c5)sc4CC[C@]3(C)[C@H]1CC[C@]1(C)C(=O)CC[C@@H]21` has a GI50 of 1.55 µM.

Going from `O=C(N/N=C/c1ccc(Cl)cc1)c1ccc(C(F)(F)F)nc1Nc1cccc(C(F)(F)F)c1` to `N=C1C(c2nc3ccccc3s2)=C(O)CN1c1cc(C(F)(F)F)ccc1Cl`, the TGI rises from 3.63 µM to > 100 µM.

Compared with `COc1cc2ncnc(Nc3ccc(C)c(O)c3)c2cc1OC`, `COc1cc2nc3cc([N+](=O)[O-])ccc3c(NCCCNCCO)c2cc1OC` is lower in TGI: > 25 µM for the first, 0.896 µM for the second.

First: COC(=O)C1=CNC=C(C(=O)OC)C1C1=CC(=O)C(C)=CC1=O
Second: COC1=C(C)C(=O)c2c(c(COC(N)=O)c3n2CC2C3N2C)C1=O (configuration not stated)
The TGI of the first is 110-fold higher: 11.5 µM for the first, 0.102 µM for the second.

First: C=C1C(=O)O[C@H]2[C@H]1CC/C(COC(=O)C(=O)c1cn(Cc3ccccc3)c3ccccc13)=C\CC[C@@]1(C)O[C@@H]21
Second: Cc1cc(S(=O)(=O)Nc2nnc(-c3ccccc3)c(-c3ccccc3)n2)c(SCC(N)=O)cc1Cl
The TGI of the first is lower: 4.03 µM for the first, > 100 µM for the second.

Compared with `COC(C(O)CO)C(O)C(O)C(=O)NNc1ccccc1` (configuration not stated), `CCOC(=O)[C@@H](N)CCC(=O)N[C@@H](CSCc1ccccc1)C(=O)N[C@@H](C(=O)OCC)c1ccccc1` is lower in TGI: > 100 µM for the first, 33.7 µM for the second.

`NS(=O)(=O)c1ccc(NC2(C(=O)O)CCCC2)cc1` and `NS(=O)(=O)c1ccc(N=Nc2c(O)[nH]c3ccc(-c4cnco4)cc23)cc1` cannot be ordered by TGI: > 100 µM for the first, > 25 µM for the second.

Going from `O=C(O)C1OC(n2cc(F)c(=O)[nH]c2=O)CC1O` (configuration not stated) to `C=C1C(=O)O[C@@H]2/C=C(\C)CC/C=C(/COC(C)=O)C[C@@H](OC(C)=O)[C@@H]12`, the TGI falls from > 100 µM to 17.7 µM.

Going from `CC(=O)CSCc1ccccn1` to `N#C/C(=C1C=C(Br)/C(=N\O)C=C\1Cl)c1cccc2ccccc12`, the TGI falls from > 100 µM to 13.6 µM.

First: COc1ccccc1CNCCCN1C(=O)c2ccc3c4c(ccc(c24)C1=O)C(=O)N(CCCOCCCCOCCCN)C3=O
Second: COc1cc2c3c(n(CCCNC(=O)OCC4c5ccccc5-c5ccccc54)c(=O)c2cc1OC)-c1cc2c(cc1/C3=C\CCNC(=O)OCC1c3ccccc3-c3ccccc31)OCO2
The TGI of the first is lower: 3.84 µM for the first, > 29.8 µM for the second.

`COc1ccc(Nc2c3ccccc3nc3occc23)cc1` and `Oc1ccccc1C(Sc1nc2ccccc2s1)Sc1nc2ccccc2s1` cannot be ordered by TGI: > 51.5 µM for the first, > 100 µM for the second.

First: COc1cc(/C=C/c2cc(/C=C/c3ccc(O)c(OC)c3)n(C(=O)Nc3ccc(F)c(Cl)c3)n2)ccc1O
Second: CN1C/C=C\CCOc2cccc(c2)-c2ccnc(n2)Nc2cccc(c2)C1
The TGI of the first is 2.1-fold higher: 1.71 µM for the first, 0.802 µM for the second.

First: CCCCCCCC/C=C/CCCCCCCC(=O)OC[C@H]1O[C@@H](n2ccc(N)nc2=O)C(F)(F)[C@@H]1O
Second: COC(=O)[C@@H](C)CNS(=O)(=O)N(c1cc(C(F)(F)F)cc(C(F)(F)F)c1)C1CCN(Cc2ccc(F)cc2)CC1
The TGI of the first is 9.4-fold lower: 2.56 µM for the first, 24 µM for the second.

`COC(=O)[C@H](C)NC(=O)NC(=O)NC(=O)CI` and `CN1C(=O)c2cccc3cc([N+](=O)[O-])cc(c23)C1=O` cannot be ordered by TGI: 32.1 µM for the first, > 10 µM for the second.

`C[C@@]12CC=C3c4nc(Nc5cccc(O)c5)sc4CC[C@]3(C)[C@H]1CC[C@]1(C)C(=O)CC[C@@H]21` was tested, and the TGI was 4.91 µM.

With `COc1cc2c(c(OC)c1OC)-c1ccc(OC)c(=O)cc1[C@@H](NC(=O)c1ccccc1)CC2` the TGI was 30 µM and 47.5 µM.

system: COLO 205 colon; test: NCI-60 cell line screen, 48 h

Going from `O=C(N/N=C/c1ccc(Cl)cc1)c1ccc(C(F)(F)F)nc1Nc1cccc(C(F)(F)F)c1` to `Cc1cc(S(=O)(=O)Nc2nnc(-c3ccccc3)c(-c3ccccc3)n2)c(SCC(N)=O)cc1Cl`, the GI50 rises from 1.8 µM to > 100 µM.

Compared with `COc1cc2ncnc(Nc3ccc(C)c(O)c3)c2cc1OC`, `COC(=O)C1=CNC=C(C(=O)OC)C1C1=CC(=O)C(C)=CC1=O` is lower in GI50: > 25 µM for the first, 22.9 µM for the second.

Work on `C=C1C(=O)O[C@H]2[C@H]1CC/C(COC(=O)C(=O)c1cn(Cc3ccccc3)c3ccccc13)=C\CC[C@@]1(C)O[C@@H]21` yielded a GI50 of 2.08 µM.

First: O=C(N/N=C/c1ccc(Cl)cc1)c1ccc(C(F)(F)F)nc1Nc1cccc(C(F)(F)F)c1
Second: Cc1cc(S(=O)(=O)Nc2nnc(-c3ccccc3)c(-c3ccccc3)n2)c(SCC(N)=O)cc1Cl
The TGI of the first is lower: 4.31 µM for the first, > 100 µM for the second.

`COc1cc2ncnc(Nc3ccc(C)c(O)c3)c2cc1OC` and `COC(=O)C1=CNC=C(C(=O)OC)C1C1=CC(=O)C(C)=CC1=O` cannot be ordered by TGI: > 25 µM for the first, 55.1 µM for the second.

`C=C1C(=O)O[C@H]2[C@H]1CC/C(COC(=O)C(=O)c1cn(Cc3ccccc3)c3ccccc13)=C\CC[C@@]1(C)O[C@@H]21` was tested, and the TGI was 4.46 µM.
